{"source": "patent US20050215635A1", "about": "“Diarylheptanoid compounds and uses thereof” (priority 2004, published 2005)", "key": {"[1]": {"system": "LPS induced NO production from mouse macrophage cells (RAW 264.7)", "experiment": "Nitric oxide measurement (nitrite, Griess reagent) in LPS-treated RAW 264.7 cells", "type": "cell-based", "settings": "RAW 264.7, 24 hrs", "experimental": "The mouse macrophage cells (RAW 264.7) were cultured in DMEM supplemented with 15% fetal bovine serum (FBS) and antibiotic and antimycotic mixture. The cell suspension of 50,000 cells/well was cultured in flat bottom microtitre plate in quadruplicate for 12 hrs. Thereafter, 100 μl of media was replaced with fresh medium containing either LPS (0.5 μg/ml) alone or LPS with various concentrations of HMP and further cultured for 24 hrs. The culture supernatant was collected at the end of culture for nitrite assay, which was used as a measure of NO production. Culture supernatant (100 μl) was mixed with equal volume of Griess reagent (SIGMA, MO, USA) and the absorbance was measured at 570 nm. The concentration of nitrite (μM) was calculated from standard curve drawn with known concentration of sodium nitrite dissolved in DMEM. The results are presented as mean ±SD of 4 replicates of one representative experiment and this experiment was repeated 5 times. For the NO assay, RAW 264.7 cells were treated with LPS (0.5 μg/ml) and/or various concentrations of HMP for 24 hrs and amount of nitrite in supernatant from each treatment group was measured using Griess reagent. Each data point represents mean+standard deviation (SD) of 5 replicates of one representative experiment of total 6 experiments."}, "[2]": {"experiment": "Radical-scavenging activity by DPPH", "excerpt": "In this example, the 2,2-diphenyl-1-picrylhydrazyl (DPPH) method was used to explore the capacity of five isolated compounds of the invention to act as free radical scavengers. The DPPH assay has been extensively used to test the free radical scavenging ability of various chemicals (Brand-williams, W. et al., Wiss. Technol. 1995, 28, 25-30; Dinis, T. C. et al., Arch. Biochem. Biophys. 1994, 315, 161-169.)\nThis method was adapted from that of Brand-Williams, et al. (Brand-williams, W.; Cuvelier, M. E.; Berset, C. Lebensm. Wiss. Technol. 1995, 28, 25-30.). At least seven different concentrations were prepared for each purified compound. 25 μl pure compound solution and 975 μL DPPH solution (63.4 μM) were mixed together and left in the dark for 30 min. Each sample was triplicated and the values were averaged. The absorbance of the samples was measured at 515 nm against methanol solution without DPPH as the blank reference. The absorbance was measured every 30 min until the reaction reached a plateau. The reaction kinetics were then plotted using the above data and the percentage of DPPH remaining at the steady state was obtained. IC50 values were determined by extrapolation from linear regression analysis.\nDPPH, 2,2-Diphenyl-1-picrylhydrazyl (DPPH.), is a stable radical in methanol solution. In its radical form, DPPH. absorbs at 515 nm, but the absorption ceases upon reduction by an antioxidant (AH) or a radical species (R.) (Brand-williams, W.; Cuvelier, M. E.; Berset, C. Lebensm. Wiss. Technol. 1995, 28, 25-30.). The concentration of tested chemicals needed to decrease the initial DPPH. concentration by 50% (IC50) is a parameter widely used to measure the antioxidant potential (Kanner, J.; Frankel, E.; German, B.; Kinsella, J. e. J. Agric. Food Chem. 1994, 42, 64-69, Vinson, J. A.; Dabbagh, Y. A.; Serry, M. M. J. Agric. Food Chem. 1995a, 43,2800-2802.). The lower the IC50, the higher the free radical scavenging power."}, "[3]": {"system": "IL-1β production from human PBMCs", "experiment": "IL-1β ELISA in supernatants of LPS-treated human PBMCs", "type": "cell-based", "settings": "18 hrs", "experimental": "The PBMCs were separated from peripheral blood of normal healthy human volunteers. […] Supernatant was harvested after 18 hrs and stored at −70° C. until tested. The quantity of IL-1β and TNF-α present in supernatants was estimated by ELISA (R&D systems, MN, USA) following manufacturer's instruction. A standard curve was obtained by plotting known concentrations of recombinant human IL-1β and TNF-α vs absorbance at 450 nm.\nEach data point represents mean+standard deviation (SD) of 3 replicates."}}, "data": [{"smiles": "COc1cc(CC/C=C/C(=O)CCc2ccccc2)ccc1O", "note": "[AO-4, 7-(4″-hydroxy-3″-methoxyphenyl)-1-phenyl-hept-4-en-3-one]", "values": [{"measurement": "Nitrite", "setting": "[1]; HMP 6.25 μM + LPS (0.5 μg/ml)", "value": "14.54 ± 2.5", "unit": "µM"}, {"measurement": "Nitrite", "setting": "[1]; HMP 6.25 μM alone", "value": "3.66 ± 1.08", "unit": "µM"}, {"measurement": "Nitrite", "setting": "[1]; HMP 12.5 μM + LPS (0.5 μg/ml)", "value": "13.75 ± 2.65", "unit": "µM"}, {"measurement": "Nitrite", "setting": "[1]; HMP 12.5 μM alone", "value": "3.88 ± 1.14", "unit": "µM"}, {"measurement": "Nitrite", "setting": "[1]; HMP 25 μM + LPS (0.5 μg/ml)", "value": "9.95 ± 1.41", "unit": "µM"}, {"measurement": "Nitrite", "setting": "[1]; HMP 25 μM alone", "value": "3.86 ± 0.97", "unit": "µM"}, {"measurement": "LPS induced production of nitric oxide (in words)", "setting": "[1]; HMP 6.25-25 μM + LPS (0.5 μg/ml)", "value": "significantly inhibited by HMP in a dose dependent manner"}, {"measurement": "NO production, HMP alone (in words)", "setting": "[1]; HMP alone", "value": "no effect on NO production"}, {"measurement": "IC50", "setting": "[2]; DPPH 63.4 μM in methanol, absorbance at 515 nm, steady state, read-out: IC50 (μM) of Diarylheptanoids in Scavenging DPPH Free Radicals", "value": 13.7, "unit": "µM"}, {"measurement": "free radical scavenging, DPPH data (in words)", "setting": "[2]; DPPH assay", "value": "very good free radical scavengers"}, {"measurement": "IL-1β", "setting": "[3]; HMP 6.25 μM + LPS (10 ng/ml)", "value": "339.21 ± 10.53", "unit": "pg/mL"}, {"measurement": "IL-1β", "setting": "[3]; HMP 6.25 μM alone", "value": "22.12 ± 3.33", "unit": "pg/mL"}, {"measurement": "IL-1β", "setting": "[3]; HMP 12.5 μM + LPS (10 ng/ml)", "value": "113.43 ± 3.81", "unit": "pg/mL"}, {"measurement": "IL-1β", "setting": "[3]; HMP 12.5 μM alone", "value": "24.45 ± 1.03", "unit": "pg/mL"}, {"measurement": "IL-1β", "setting": "[3]; HMP 25 μM + LPS (10 ng/ml)", "value": "77.27 ± 4.6", "unit": "pg/mL"}, {"measurement": "IL-1β", "setting": "[3]; HMP 25 μM alone", "value": "23.28 ± 1.41", "unit": "pg/mL"}, {"measurement": "LPS induced secretion of IL-1β (in words)", "setting": "[3]; HMP 6.25-25 μM + LPS", "value": "significantly in dose dependent fashion"}]}]}
